Source: ChEMBL document CHEMBL5149994, “Anticancer potential of indirubins in medicinal chemistry: Biological activity, structural modification, and structure-activity relationship” (Eur J Med Chem, 2021)
Converted amounts (≈) assume the structure as drawn. One block for each compound: values may come before it.

Legend:
HL-60 [1] = assay: Cytotoxicity against human HL-60 cells assessed as cell growth inhibition; format: functional, cell-based
A549 = assay: Antiproliferative activity against human A549 cells assessed as cell growth inhibition measured after 96 hrs by MTT assay; format: functional, cell-based; conditions: A549, 96 h
SW480 [2] = assay: Antiproliferative activity against human SW480 cells assessed as cell growth inhibition measured after 96 hrs by MTT assay; format: functional, cell-based; conditions: SW480, 96 h
CH1 = assay: Antiproliferative activity against human CH1 cells assessed as cell growth inhibition measured after 96 hrs by MTT assay; format: functional, cell-based; conditions: CH1, 96 h
CDK2/Cyclin A2 = CDK2/Cyclin A2 (Homo sapiens, UniProt P24941); assay: Inhibition of CDK2/cyclin A (unknown origin); format: protein-complex assay
DU-145 = assay: Antiproliferative activity against human DU-145 cells assessed as cell growth inhibition by MTT assay; format: functional, cell-based
SW480 [3] = assay: Antiproliferative activity against human SW480 cells assessed as cell growth inhibition measured after 72 hrs by MTT assay; format: functional, cell-based; conditions: SW480, 72 h
HepG2 [4] = assay: Antiproliferative activity against human HepG2 cells assessed as cell growth inhibition measured after 72 hrs by MTT assay; format: functional, cell-based; conditions: HepG2, 72 h
[5] = Antiproliferative activity against human Lu1 cells assessed as cell growth inhibition measured after 72 hrs by MTT assay; format: functional, cell-based; conditions: Lu1, 72 h
HL-60 [6] = assay: Antiproliferative activity against human HL-60 cells assessed as cell growth inhibition measured after 72 hrs by MTT assay; format: functional, cell-based; conditions: HL-60, 72 h
NCI-H157 = assay: Cytotoxicity against human NCI-H157 cells assessed as cell growth inhibition at 100 uM by calcein-AM staining based flow cytometry analysis relative to control; format: functional; set-up: scale not given: the % may be the effect or the level left
[7] = Cytotoxicity against rat RK3E cells harboring RAS assessed as cell growth inhibition measured after 24 hrs by MTT assay; format: toxicity, cell-based
K562 = assay: Antiproliferative activity against human K562 cells assessed as cell growth inhibition measured after 48 hrs by CCK-8 assay; format: functional, cell-based; conditions: K562, 48 h
[8] = biological target: Indoleamine 2,3-dioxygenase 1 (Homo sapiens, UniProt P14902); assay: Inhibition of IDO1 in human Hela cells assessed as reduction in N-formylkynurenine formation incubated for 30 mins; format: cell-based
MCF7 [9] = assay: Cytotoxicity against human MCF7 cells assessed as cell growth inhibition measured after 4 days by crystal violet staining based assay; format: functional; conditions: MCF7, 96 h
[10] = Kinetic solubility of compound in PBS at pH 7.4; format: physicochemical; conditions: read-out: Kinetic_solubility
[11] = Inhibition of GST-tagged recombinant human CDK2/cyclin E expressed in Sf9 cells incubated for 10 mins in presence of [33P]-gamma ATP and ATP by scintillation counter method
MCF7 [12] = assay: Cytotoxicity against human MCF7 cells assessed as cell growth inhibition; format: functional, cell-based
MCF7 [13] = assay: Cytotoxicity against human MCF7 cells assessed as cell growth inhibition by MTT assay; format: functional, cell-based
LoVo = assay: Cytotoxicity against human LoVo cells assessed as cell growth inhibition by MTT assay; format: functional, cell-based
LNCaP = assay: Cytotoxicity against human LNCaP cells assessed as cell growth inhibition by MTT assay; format: functional, cell-based
[14] = Cytotoxicity against human SK-MEL-29 cells assessed as cell growth inhibition measured after 24 hrs by WST-1 assay; format: functional, cell-based; conditions: SK-MEL-29, 24 h
SK-MEL19 = assay: Cytotoxicity against human SK-MEL19 cells assessed as cell growth inhibition measured after 24 hrs by WST-1 assay; format: functional, cell-based; conditions: SK-MEL19, 24 h
SK-MEL-103 = assay: Cytotoxicity against human SK-MEL-103 cells assessed as cell growth inhibition measured after 24 hrs by WST-1 assay; format: functional, cell-based; conditions: SK-MEL-103, 24 h
SK-MEL-147 = assay: Cytotoxicity against human SK-MEL-147 cells assessed as cell growth inhibition measured after 24 hrs by WST-1 assay; format: functional, cell-based; conditions: SK-MEL-147, 24 h
HepG2 [15] = assay: Antiproliferative activity against human HepG2 cells assessed as cell growth inhibition; format: functional, cell-based
SW480 [16] = assay: Antiproliferative activity against human SW480 cells assessed as cell growth inhibition; format: functional, cell-based
[17] = Antiproliferative activity against human Lu1 cells assessed as cell growth inhibition; format: functional, cell-based
HL-60 [18] = assay: Antiproliferative activity against human HL-60 cells assessed as cell growth inhibition; format: functional, cell-based

Sequence of Indoleamine 2,3-dioxygenase 1 (P14902 whole entry): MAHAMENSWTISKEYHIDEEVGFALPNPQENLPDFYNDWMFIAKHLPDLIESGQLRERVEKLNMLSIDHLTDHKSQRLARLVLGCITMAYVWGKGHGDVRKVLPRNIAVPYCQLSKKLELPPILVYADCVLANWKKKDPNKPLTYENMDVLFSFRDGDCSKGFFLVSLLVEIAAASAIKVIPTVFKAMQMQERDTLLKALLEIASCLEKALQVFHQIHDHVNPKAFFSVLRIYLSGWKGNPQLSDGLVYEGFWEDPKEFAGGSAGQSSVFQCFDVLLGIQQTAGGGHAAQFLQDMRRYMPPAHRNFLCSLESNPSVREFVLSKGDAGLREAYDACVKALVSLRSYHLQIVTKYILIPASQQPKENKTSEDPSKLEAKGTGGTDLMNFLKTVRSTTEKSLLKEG

SMILES: CN(C)CCN1C(=O)/C(=C2\Nc3ccccc3C2=O)c2ccccc21
IC50 (HL-60 [1]): 4.45 µM

SMILES: C[C@@H]1O[C@H](N2C(=O)/C(=C3\[Se]c4ccccc4C3=O)c3ccccc32)[C@H](O)[C@H](O)[C@H]1O
Activity (NCI-H157): 16.7%

SMILES: O=C1Nc2ccc([N+](=O)[O-])cc2/C1=C1/Nc2ccccc2/C1=N\O
IC50 at 24 h [7]: 1 µM

SMILES: C[C@@H]1O[C@@H](N2C(=O)/C(=C3\Nc4ccccc4C3=O)c3ccccc32)[C@H](O)[C@H](O)[C@H]1O
IC50 (MCF7 [12]): 0.76 µM

SMILES: CCCN1C(=O)/C(=C2\Nc3ccccc3\C2=N/O)c2ccccc21
IC50 (MCF7 [13]): 87.6 µM
IC50 (LoVo): 67.5 µM
IC50 (LNCaP): 77.1 µM

SMILES: O=C1/C(=C2/C(=O)N([C@H]3O[C@H](CO)[C@@H](O)[C@H](O)[C@@H]3O)c3ccccc32)Sc2ccccc21
IC50 [14]: 3.96 µM
IC50 (SK-MEL19): 5.81 µM
IC50 (SK-MEL-103): 6.69 µM
IC50 (SK-MEL-147): 4.28 µM

SMILES: C=CCC1(O)/C(=C2/C(=O)Nc3ccc(S(=O)(=O)N(C)CCN(C)C)cc32)Nc2ccccc21 (stereo unspecified)
IC50 (MCF7 [9]): < 0.1 µM
solubility kinetic [10]: > 40 µg/mL
IC50 [11]: 0.04 µM

SMILES: O=C1/C(=C2/C(=O)N([C@H]3O[C@H](CO)[C@@H](O)[C@H](O)[C@@H]3O)c3ccccc32)[Se]c2ccccc21
Activity (NCI-H157): 21.5%

SMILES: O=C1Nc2ccccc2/C1=C1/Nc2ncccc2C1=O
IC50 (CDK2/Cyclin A2): 8.8 µM

SMILES: O=C1CCC(N2C(=O)c3cccc(-n4cc(COCCOCCOCCN5C(=O)/C(=C6\Nc7ccccc7C6=O)c6ccccc65)nn4)c3C2=O)C(=O)N1 (stereo unspecified)
IC50 (K562): 42.2 µM
IC50 [8]: 33.9 µM

Continued, in another order:

IC50 (A549): 13 µM
IC50 (SW480 [2]): 2.5 µM
SMILES: NCCO/N=C1/C(=C2/C(=O)Nc3ccccc32)Nc2ccc(O)cc21
IC50 (CH1): 1.3 µM

IC50 (CDK2/Cyclin A2): 1.2 µM
IC50 (DU-145): 40 µM
SMILES: CCN1C(=O)/C(=C2\Nc3ccccc3C2=O)c2cccnc21

IC50 (SW480 [3]): 3.43 µM
IC50 (HepG2 [4]): 2.28 µM
IC50 (HL-60 [6]): 1.28 µM
SMILES: CCCOc1ccccc1/C=C/C(=O)c1ccc(OCCn2cc(CN3C(=O)/C(=C4\Nc5ccccc5\C4=N/O)c4ccccc43)nn2)cc1O
IC50 [5]: 2.07 µM

IC50 (DU-145): 8 µM
SMILES: CCN1C(=O)/C(=C2\Nc3ccccc3\C2=N/O)c2cccnc21

IC50 (K562): 34.2 µM
IC50 [8]: 54.7 µM
SMILES: Cc1cn(C2CC(n3cc(COCCOCCOCCN4C(=O)/C(=C5\Nc6ccccc6C5=O)c5ccccc54)nn3)C(CO)O2)c(=O)[nH]c1=O (stereo unspecified)

solubility kinetic [10]: 18 µg/mL (≈ 40.8 µM)
SMILES: CN(C)CCN(C)S(=O)(=O)c1ccc2c(c1)/C(=C1/Nc3ccccc3/C1=N\O)C(=O)N2
IC50 (MCF7 [9]): < 0.1 µM
IC50 [11]: 0.04 µM

IC50 (HepG2 [15]): 4.47 µM
IC50 (SW480 [16]): 4.19 µM
IC50 (HL-60 [18]): 4.28 µM
SMILES: Cc1ccc(Nc2nnc(SCC(O)CN3C(=O)/C(=C4\Nc5ccccc5C4=O)c4ccccc43)s2)c(C)c1 (stereo unspecified)
IC50 [17]: 4.53 µM

solubility kinetic [10]: > 40 µg/mL
SMILES: CN(C)CCN(C)S(=O)(=O)c1ccc2c(c1)/C(=C1/Nc3ccccc3C1(C)O)C(=O)N2 (stereo unspecified)
IC50 (MCF7 [9]): < 0.1 µM
IC50 [11]: 0.07 µM

solubility kinetic [10]: 12 µg/mL (≈ 28.1 µM)
SMILES: CN(C)CCN(C)S(=O)(=O)c1ccc2c(c1)/C(=C1/Nc3ccccc3C1=O)C(=O)N2
IC50 (MCF7 [9]): < 0.1 µM
IC50 [11]: 0.01 µM

IC50 (DU-145): 1.8 µM
SMILES: CN1C(=O)/C(=C2\Nc3ccc(Cl)cc3\C2=N/O)c2cccnc21

IC50 (CDK2/Cyclin A2): 9.5 µM
SMILES: CC(C)N1C(=O)/C(=C2\Nc3ccccc3C2=O)c2cccnc21

IC50 (DU-145): 8 µM
SMILES: CN1C(=O)/C(=C2\Nc3ccc(Cl)cc3C2=O)c2cccnc21
